From US6013623A, “Use of heme-peptides to prevent or retard disease associated with oxidative stress” (The Trustees of Columbia University in the City of New York, priority 1997, dated 2000)
No end group written: not given here.

Experiments:
[1] = tested on: lens epithelial cell culture; conditions: range required for effective activity; cited from earlier work
[2] = Degradation of H2O2 by microperoxidase (ferroammonium sulfate/thiocyanate H2O2 assay); format: biochemical
Procedure: (FIG. 1A) Effect of cofactors on μPx-11 degradation of H2 O2. 300 μM hydrogen peroxide (H2 O2) was incubated with μPx-11 in 50 mM phosphate buffer, pH 7.0 at 25° C. in 1 ml. At indicated times, 50 μl aliquots were removed for H2 O2 assay as described in the Materials and Methods section. 50 mM phosphate buffer, pH 7.0 buffer+500 μM NADPH, buffer+1 mM ascorbate (Asc), buffer+3 μM (μPx-11), prior solution+500 μM NADPH, as the previous solution but with 1 mM Asc rather than NADPH. 20 μM μPx-11 in 50 mM phosphate buffer pH 7.0. The results represent the average±S.D. of 3 experiments in most cases.
(FIG. 1B) Stability of μPx-11 as measured by ability to degrade H2 O2. 300 μM H2 O2 in 2 ml of 50 mM phosphate buffer, pH. […] The levels of certain components (H2 O2, NADPH or Asc) were brought back to estimated starting concentrations based on prior experiments and the H2 O2 decay again measured. […]
(FIG. 1C) Concentration dependence of μPx-11 in the presence of Asc. […] The data is expressed as nmoles H2 O2 degraded per ml per minute per nmole μPx-11 in 1 ml. The initial H2 O2 degradation rate measured in the first minute is given. […]
H2 O2 was assayed by the method of Hildebrandt et al. (1978), as modified by Spector et al. (1993a) and is based on the oxidation of ferroammonium sulfate in the presence of potassium thiocyanate. […] Hydroxyl radical was determined as previously described (Spector et al., 1993a). […]

| effect of H2O2 on peroxidase ([2]; absence of Asc) | Molecule | toxicity [1] | ability to degrade H2O2 compared with μPx-11 ([2]; presence of 1 mM Asc) |
| --- | --- | --- | --- |
| – | CN(C)Cc1ccccc1[Se][Se]c1ccccc1CN(C)C [2,2'diselenobis (N,N dimethylamino)methyl benzene] | toxic in the μM (micromolar) range | – |
| – | O=c1c2ccccc2[se]n1-c1ccccc1 [Ebselen] | toxic in the μM (micromolar) range | – |
| inactivated | μPx-8: heme-peptide with the cytochrome C peptide segment containing residue 14 to 21 (CAQCHTVE; cysteine pairing not given here; also: heme-peptide, heme attachment not placed; UniProt P00004 15-22, looked up, fragment) | – | more active than μPx-11 |
